# Reference: patent publication US20250304576A1 (Cancer Research Technology Limited, priority 2022, published 2025)
# pKi: −log10 of the molar value.
# How the values were obtained:
# [1] = target: T1, Recombinant IKKβ (Homo sapiens, UniProt O14920); assay: DELFIA IKKβ kinase assay (apparent Ki, Cheng-Prusoff); format: biochemical
# T1 construct: purchased Millipore, Dundee, UK
# T1 sequence (O14920 1-756): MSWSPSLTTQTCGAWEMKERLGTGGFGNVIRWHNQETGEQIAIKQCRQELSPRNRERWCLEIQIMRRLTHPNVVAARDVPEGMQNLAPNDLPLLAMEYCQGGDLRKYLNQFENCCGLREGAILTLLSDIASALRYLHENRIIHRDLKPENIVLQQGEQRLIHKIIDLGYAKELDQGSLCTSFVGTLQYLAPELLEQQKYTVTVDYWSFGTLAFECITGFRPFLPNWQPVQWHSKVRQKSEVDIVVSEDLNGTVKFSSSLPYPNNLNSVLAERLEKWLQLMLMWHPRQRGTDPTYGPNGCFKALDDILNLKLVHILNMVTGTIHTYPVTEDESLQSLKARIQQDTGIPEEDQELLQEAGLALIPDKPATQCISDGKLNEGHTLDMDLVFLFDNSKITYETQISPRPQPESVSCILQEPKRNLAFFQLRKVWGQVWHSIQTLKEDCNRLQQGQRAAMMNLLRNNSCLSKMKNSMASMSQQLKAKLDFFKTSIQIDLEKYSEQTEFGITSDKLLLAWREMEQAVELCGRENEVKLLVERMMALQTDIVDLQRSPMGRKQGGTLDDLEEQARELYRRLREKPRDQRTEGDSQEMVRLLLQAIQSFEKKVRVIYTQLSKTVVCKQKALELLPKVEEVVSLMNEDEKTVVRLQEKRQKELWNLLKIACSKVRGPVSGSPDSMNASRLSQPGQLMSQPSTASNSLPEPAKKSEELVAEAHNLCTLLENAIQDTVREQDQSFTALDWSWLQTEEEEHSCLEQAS
# Experimental: (§1) IKKα and IKKβ inhibitory activity was determined using three different assays: a dissociation enhanced ligand fluorescent immunoassay (DELFIA) based on the protocol of HTScan™ IKKβ Kinase Assay (Cell Signaling Technology, USA); an Adapta IKKα assay (performed by Life Technologies); a Z′-LYTE™ IKKβ assay (performed by Life Technologies).
# (§2) Recombinant IKKα or IKKβ, 37 nM, (Millipore, Dundee, UK) was incubated with IηB-α (Ser32) (New England Biolabs, Hitchin, UK) biotinylated peptide substrate (0.375 μM) and 40 μM ATP in assay buffer (40 mM Tris-HCl (pH 7.5), 20 mM MgCl2, EDTA 1 mM, DTT 2 mM and BSA 0.01 mg/ml) in a V-well 96-well plate in the presence and absence of test compound. The assay plate was incubated for 60 minutes at 30° C. after which the kinase reaction was quenched by the addition of 50 mM EDTA, pH8. The resulting mixture was transferred to a streptavidin coated 96-well plate (Perkin Elmer, Beaconsfield, UK) and incubated for 1 hour at 30° C. to immobilise the substrate peptide. After three washes with wash buffer (0.01 M phosphate buffered saline (PBS), 0.05% Tween −20, pH 7.4) a primary antibody against the phosphorylated substrate (phospho-IηB-a) (Ser32/36) (5A5) Mouse mAb (New England Biolabs, Hitchin, UK) (1:1000 dilution with 1% bovine serum albumin (BSA) in wash buffer) was added and incubated at 37° C. for 2 h.
# (§3) After a further three washes, a secondary europiated antibody (Eu-N1 labelled anti-mouse IgG, (Perkin Elmer, Beaconsfield, UK) diluted 1:500 in 1% BSA/wash buffer) was added and incubated at 30° C. for 30 minutes. After a further five washes, DELFIA enhancement solution—(Perkin Elmer, Beaconsfield UK) was added and allowed to incubate for 10 min at room temperature, protected from light, to facilitate the chemifluorescent detection. The relative fluorescence units (RFU) signal were measured on a Wallac Victor 1420 multilabel counter (Perkin Elmer, Beaconsfield, UK), in time-resolved fluorescence mode. The counter was set at an excitation wavelength of 340 nm with a 400 μs delay before detecting emitted light at 615 nm. The apparent Ki of the […] was calculated for each compound using the Cheng-Prusoff Equation.
# (§4) The IKKα and IKKβ figures quoted in non-italicised form are from the DELFIA assay described above.
# [2] = target: T2, Recombinant IKKα (Homo sapiens, UniProt O15111); assay: DELFIA IKKα kinase assay (apparent Ki, Cheng-Prusoff); format: biochemical
# T2 construct: purchased Millipore, Dundee, UK
# T2 sequence (O15111 1-745): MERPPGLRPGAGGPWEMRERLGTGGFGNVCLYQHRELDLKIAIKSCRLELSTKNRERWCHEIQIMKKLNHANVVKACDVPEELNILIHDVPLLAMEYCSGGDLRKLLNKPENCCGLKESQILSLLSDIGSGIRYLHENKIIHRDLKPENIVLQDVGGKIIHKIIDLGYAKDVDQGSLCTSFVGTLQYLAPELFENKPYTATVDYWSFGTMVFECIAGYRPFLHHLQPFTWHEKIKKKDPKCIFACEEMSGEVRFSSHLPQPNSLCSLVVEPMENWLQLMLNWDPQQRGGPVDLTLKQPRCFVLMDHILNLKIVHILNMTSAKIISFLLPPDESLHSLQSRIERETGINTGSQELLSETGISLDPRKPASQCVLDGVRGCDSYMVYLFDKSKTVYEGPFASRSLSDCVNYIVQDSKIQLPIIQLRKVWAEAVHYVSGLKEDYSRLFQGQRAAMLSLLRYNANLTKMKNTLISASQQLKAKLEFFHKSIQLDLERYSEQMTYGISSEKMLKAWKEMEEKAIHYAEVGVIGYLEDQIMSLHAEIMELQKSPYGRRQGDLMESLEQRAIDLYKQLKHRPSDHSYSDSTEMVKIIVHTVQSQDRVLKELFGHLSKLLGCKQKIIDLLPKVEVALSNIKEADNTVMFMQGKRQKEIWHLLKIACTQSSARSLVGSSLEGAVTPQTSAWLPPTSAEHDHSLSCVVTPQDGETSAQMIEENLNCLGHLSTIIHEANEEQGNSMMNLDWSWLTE
# Experimental: as §1, §2, §3, §4
# [3] = DELFIA assay (first line of an example)
# [4] = non-italicised figure: DELFIA assay
"pKi [1, 3]","pKi [2, 3]","pKi [1, 4]","pKi [2, 4]",Structure (SMILES)
7.36,8.05,–,–,"CC(C)(O)CCc1cc(-c2ccnc(NC(=O)C3CC3)c2)cc2c(N)n[nH]c12 [Example 292, N-(4-(3-Amino-7-(3-hydroxy-3-methylbutyl)-1H-indazol-5-yl)pyridin-2-yl)cyclopropanecarboxamide]"
5.83,7.09,–,–,"Nc1n[nH]c2c(C#CC3(O)CCCC3)cc(-c3ccnc4[nH]ccc34)cc12 [Example 207, 1-((3-Amino-5-(1H-pyrrolo[2,3-b]pyridin-4-yl)-1H-indazol-7-yl)ethynyl)cyclopentan-1-ol]"
–,–,6.11,8.15,"CCC(=O)Nc1cc(-c2cc(C#CC(C)(C)C)c3[nH]nc(N)c3c2)ccn1 [Example 165, N-(4-(3-Amino-7-(3,3-dimethylbut-1-yn-1-yl)-1H-indazol-5-yl)pyridin-2-yl)propionamide]"
–,–,5.63,7.64,"CC(C)(C)C#Cc1cc(-c2cc(N)ncc2F)cc2c(N)n[nH]c12 [Example 148, 5-(2-Amino-5-fluoropyridin-4-yl)-7-(3,3-dimethylbut-1-yn-1-yl)-1H-indazol-3-amine]"
–,–,6.38,7.85,CC(C)c1cccc(NC(=O)Nc2cc(-c3ccc4[nH]nc(N)c4c3)ccn2)c1 [Example 53]
6.89,8.52,–,–,"CC(C)CCNC(=O)c1cc2c(-c3ccc4[nH]nc(N)c4c3)ccnc2[nH]1 [Example 237, 4-(3-amino-1H-indazol-5-yl)-N-isopentyl-1H-pyrrolo[2,3-b]pyridine-2-carboxamide]"
5.59,7.34,–,–,"COCCCNCc1cc2c(-c3ccc4[nH]nc(N)c4c3)ccnc2[nH]1 [Example 256, 5-(2-(((3-methoxypropyl)amino)methyl)-1H-pyrrolo[2,3-b]pyridine-4-yl)-1H-indazol-3-amine]"
–,–,6.17,6.94,"Nc1n[nH]c2ccc(-c3ccnc(NC(=O)NCCCO)c3)cc12 [Example 42, 1-(4-(3-Amino-1H-indazol-5-yl)pyridin-2-yl)-3-(3-hydroxypropyl)urea]"
–,–,< 5.00,6.64,"Nc1n[nH]c2ccc(-c3ccnc(NC(=O)NC4CCCCC4)c3)cc12 [Example 40, 1-(4-(3-Amino-1H-indazol-5-yl)pyridin-2-yl)-3-cyclohexylurea]"
–,–,6.38,7.85,"Nc1n[nH]c2ccc(-c3ccnc(NC(=O)Nc4cccc(CO)c4)c3)cc12 [Example 54, 1-(4-(3-Amino-1H-indazol-5-yl)pyridin-2-yl)-3-(3-(hydroxymethyl)phenyl)urea]"
–,–,5.98,7.34,"Cc1ccccc1NC(=O)Nc1cc(-c2ccc3[nH]nc(N)c3c2)ccn1 [Example 66, 1-(4-(3-Amino-1H-indazol-5-yl)pyridin-2-yl)-3-(o-tolyl)urea]"
–,–,6.59,7.41,"Nc1n[nH]c2c(Br)cc(-c3ncnc4[nH]ccc34)cc12 [Example 11, 7-Bromo-5-(7H-pyrrolo[2,3-d]pyrimidin-4-yl)-1H-indazol-3-amine]"
–,–,6.45,6.82,"Nc1n[nH]c2ccc(-c3ccnc(NC(=O)NCc4ccccc4)c3)cc12 [Example 45, 1-(4-(3-Amino-1H-indazol-5-yl)pyridin-2-yl)-3-benzylurea]"
5.33,5.09,–,–,"Nc1n[nH]c2c(-c3ccc(O)cc3)cc(-c3ccnc(NC4COC4)c3)cc12 [Example 324, 4-(3-Amino-5-(2-(oxetan-3-ylamino)pyridin-4-yl)-1H-indazol-7-yl)phenol]"
6.91,8.40,–,–,"NCCNC(=O)c1cc2c(-c3ccc4[nH]nc(N)c4c3)ccnc2[nH]1 [Example 241, 4-(3-Amino-1H-indazol-5-yl)-N-(2-aminoethyl)-1H-pyrrolo[2,3-b]pyridine-2-carboxamide]"
–,–,5.46,7.47,"CNC(=O)Nc1cc(-c2cc(C#CC(C)(C)C)c3[nH]nc(N)c3c2)ccn1 [Example 186, 1-(4-(3-Amino-7-(3,3-dimethylbut-1-yn-1-yl)-1H-indazol-5-yl)pyridin-2-yl)-3-methylurea]"
6.48,7.33,–,–,"Nc1n[nH]c2c(C#Cc3ccccc3)cc(-c3ccnc4[nH]c(CCN5CCOCC5)cc34)cc12 [Example 281, 5-(2-(2-Morpholinoethyl)-1H-pyrrolo[2,3-b]pyridin-4-yl)-7-(phenylethynyl)-1H-indazol-3-amine]"
–,–,6.27,7.72,"Nc1nccc(-c2ccc3[nH]nc(N)c3c2)c1C#CCCC(=O)c1ccccc1 [Example 82, 5-(2-Amino-4-(3-amino-1H-indazol-5-yl)pyridine-3-yl)-1-phenylpent-4-yn-1-one]"
5.90,6.61,–,–,"Nc1n[nH]c2c(C#CCCCCOc3ccccc3)cc(-c3ccnc4[nH]ccc34)cc12 [Example 217, 7-(6-Phenoxyhex-1-yn-1-yl)-5-(1H-pyrrolo[2,3-b]pyridin-4-yl)-1H-indazol-3-amine]"
5.50,7.35,–,–,"CC(C)(C)C#Cc1cc(-c2ccnc(NC3CCOC3)c2)cc2c(N)n[nH]c12 (stereo not drawn) [Example 322, 7-(3,3-Dimethylbut-1-yn-1-yl)-5-(2-((tetrahydrofuran-3-yl)amino)pyridin-4-yl)-1H-indazol-3-amine]"
6.57,8.70,–,–,"CC(C)(C)C#Cc1cc(-c2ccnc3[nH]c(CO)cc23)cc2c(N)n[nH]c12 [Example 297, (4-(3-Amino-7-(3,3-dimethylbut-1-yn-1-yl)-1H-indazol-5-yl)-1H-pyrrolo[2,3-b]pyridin-2-yl)methanol]"
5.80,7.70,–,–,"CCOC(=O)Nc1cc(-c2cc(C#CC(C)(C)C)c3[nH]nc(N)c3c2)ccn1 [Example 191, Ethyl (4-(3-amino-7-(3,3-dimethylbut-1-yn-1-yl)-1H-indazol-5-yl)pyridin-2-yl)carbamate]"
6.69,7.32,–,–,"CC(C)(C)C#Cc1cc(-c2ccnc(Nc3cc[nH]n3)c2)cc2c(N)n[nH]c12 [Example 310, 5-(2-((1H-Pyrazol-3-yl)amino)pyridin-4-yl)-7-(3,3-dimethylbut-1-yn-1-yl)-1H-indazol-3-amine]"
–,–,5.87,6.94,"CCCCCCNc1cc(-c2ccc3[nH]nc(N)c3c2)ccn1 [Example 17, 5-(2-(Hexylamino)pyridine-4-yl)-1H-indazol-3-amine]"
